# PubChem BioAssay AID2060329 (Molecular Pharmacology Branch, DTP, NCI, 2025)
# Tested on: MCF7 multi-cell spheroids with HUVEC/MSC, viability
# Experiment: Anticancer human tumor MCF7 cell line growth inhibition [IpAb];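 note: spheroids exposed to agents for seven days before readout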
# Settings: for IC50: curve of first compound; for viability, T/C: stronger effect = lower value
# Summary of the method: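 Combinations with ipatasertib or abemaciclib were tested on tumour spheroids holding HUVEC (25%) and MSC (15%) alongside 60% malignant cells. Top concentration was at or near clinical Cmax (10 microM if undefined), descending in half-log steps.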
# [1] = second compound 0.1 µM, first compound 0.0316 µM
# [2] = second compound 0.1 µM, first compound 0.1 µM
# [3] = second compound 0.316 µM, first compound 0.0316 µM
# [4] = second compound 0.316 µM, first compound 0.1 µM
# [5] = second compound 1 µM, first compound 0.0316 µM
# [6] = second compound 1 µM, first compound 0.1 µM
# [7] = second compound 3.16 µM, first compound 0.0316 µM
# [8] = second compound 3.16 µM, first compound 0.1 µM
# [9] = second compound 10 µM, first compound 0.0316 µM
# [10] = second compound 10 µM, first compound 0.1 µM
# [11] = second compound 0.01 µM, first compound 0.0316 µM
# [12] = second compound 0.01 µM, first compound 0.1 µM
# [13] = second compound 0.01 µM, first compound 0.316 µM
# [14] = second compound 0.01 µM, first compound 1 µM
# [15] = second compound 0.01 µM, first compound 3.16 µM
# [16] = second compound 0.01 µM, first compound 10 µM
# [17] = second compound 0.0316 µM, first compound 0.0316 µM
# [18] = second compound 0.0316 µM, first compound 0.1 µM
# [19] = second compound 0.0316 µM, first compound 0.316 µM
# [20] = second compound 0.0316 µM, first compound 1 µM
# [21] = second compound 0.0316 µM, first compound 3.16 µM
# [22] = second compound 0.0316 µM, first compound 10 µM
# [23] = second compound 0.1 µM, first compound 0.316 µM
# [24] = second compound 0.1 µM, first compound 1 µM
# [25] = second compound 0.1 µM, first compound 3.16 µM
# [26] = second compound 0.1 µM, first compound 10 µM
# [27] = second compound 0.316 µM, first compound 0.316 µM
# [28] = second compound 0.316 µM, first compound 1 µM
# [29] = second compound 0.316 µM, first compound 3.16 µM
# [30] = second compound 0.316 µM, first compound 10 µM
# [31] = second compound 1 µM, first compound 0.316 µM
# [32] = second compound 1 µM, first compound 1 µM
# [33] = second compound 1 µM, first compound 3.16 µM
# [34] = second compound 1 µM, first compound 10 µM
smiles,measurement,setting,value
CC(C)n1nc(-c2ccc3oc(N)nc3c2)c2c(N)ncnc21 + CC(C)NCC(C(=O)N1CCN(c2ncnc3c2C(C)CC3O)CC1)c1ccc(Cl)cc1,IC50,second compound 0.1 µM,13.9 nM
same,IC50,second compound 0.316 µM,8.42 nM
same,IC50,second compound 1 µM,2.59 nM
same,IC50,second compound 3.16 µM,0.594 nM
same,IC50,second compound 10 µM,< 0.316 nM
same,"viability, T/C","second compound 0.1 µM, first compound 0.000316 µM",88.7%
same,"viability, T/C","second compound 0.1 µM, first compound 0.001 µM",92.6%
same,"viability, T/C","second compound 0.1 µM, first compound 0.00316 µM",77.4%
same,"viability, T/C","second compound 0.1 µM, first compound 0.01 µM",58.9%
same,"viability, T/C",[1],29.5%
same,"viability, T/C",[2],13.1%
same,"viability, T/C","second compound 0.316 µM, first compound 0.000316 µM",82.5%
same,"viability, T/C","second compound 0.316 µM, first compound 0.001 µM",85.9%
same,"viability, T/C","second compound 0.316 µM, first compound 0.00316 µM",65.4%
same,"viability, T/C","second compound 0.316 µM, first compound 0.01 µM",50.3%
same,"viability, T/C",[3],17.9%
same,"viability, T/C",[4],9.55%
same,"viability, T/C","second compound 1 µM, first compound 0.000316 µM",77.5%
same,"viability, T/C","second compound 1 µM, first compound 0.001 µM",64.8%
same,"viability, T/C","second compound 1 µM, first compound 0.00316 µM",48.4%
same,"viability, T/C","second compound 1 µM, first compound 0.01 µM",21.1%
same,"viability, T/C",[5],8.63%
same,"viability, T/C",[6],6.29%
same,"viability, T/C","second compound 3.16 µM, first compound 0.000316 µM",56.1%
same,"viability, T/C","second compound 3.16 µM, first compound 0.001 µM",42.6%
same,"viability, T/C","second compound 3.16 µM, first compound 0.00316 µM",36.5%
same,"viability, T/C","second compound 3.16 µM, first compound 0.01 µM",9.09%
same,"viability, T/C",[7],6.78%
same,"viability, T/C",[8],7.35%
same,"viability, T/C","second compound 10 µM, first compound 0.000316 µM",48.4%
same,"viability, T/C","second compound 10 µM, first compound 0.001 µM",45.5%
same,"viability, T/C","second compound 10 µM, first compound 0.00316 µM",17.5%
same,"viability, T/C","second compound 10 µM, first compound 0.01 µM",8.22%
same,"viability, T/C",[9],8.47%
same,"viability, T/C",[10],6.95%
Cc1nc(NC(=O)N2CCCC2C(N)=O)sc1-c1ccnc(C(C)(C)C(F)(F)F)c1 (stereo not given) + CCN1CCN(Cc2ccc(Nc3ncc(F)c(-c4cc(F)c5nc(C)n(C(C)C)c5c4)n3)nc2)CC1,IC50,second compound 0.01 µM,3360 nM
same,IC50,second compound 0.0316 µM,2430 nM
same,IC50,second compound 0.1 µM,2690 nM
same,IC50,second compound 0.316 µM,3500 nM
same,IC50,second compound 1 µM,2730 nM
same,"viability, T/C",[11],104%
same,"viability, T/C",[12],93.5%
same,"viability, T/C",[13],94.8%
same,"viability, T/C",[14],72.6%
same,"viability, T/C",[15],52.2%
same,"viability, T/C",[16],23.8%
same,"viability, T/C",[17],112%
same,"viability, T/C",[18],108%
same,"viability, T/C",[19],91%
same,"viability, T/C",[20],63.4%
same,"viability, T/C",[21],48.7%
same,"viability, T/C",[22],14.2%
same,"viability, T/C",[1],106%
same,"viability, T/C",[2],96.6%
same,"viability, T/C",[23],76%
same,"viability, T/C",[24],59.4%
same,"viability, T/C",[25],56.5%
same,"viability, T/C",[26],27.3%
same,"viability, T/C",[3],93%
same,"viability, T/C",[4],105%
same,"viability, T/C",[27],80.7%
same,"viability, T/C",[28],61.4%
same,"viability, T/C",[29],58.9%
same,"viability, T/C",[30],34%
same,"viability, T/C",[5],92.3%
same,"viability, T/C",[6],80.2%
same,"viability, T/C",[31],65.6%
same,"viability, T/C",[32],69.4%
same,"viability, T/C",[33],48%
same,"viability, T/C",[34],33.1%
C=CC(=O)N1CCN(c2nc(=O)n(-c3c(C)ccnc3C(C)C)c3nc(-c4c(O)cccc4F)c(F)cc23)C(C)C1 (stereo not given) + CCN1CCN(Cc2ccc(Nc3ncc(F)c(-c4cc(F)c5nc(C)n(C(C)C)c5c4)n3)nc2)CC1,IC50,second compound 0.01 µM,> 10000 nM
same,IC50,second compound 0.0316 µM,> 10000 nM
same,IC50,second compound 0.1 µM,> 10000 nM
same,IC50,second compound 0.316 µM,> 10000 nM
same,IC50,second compound 1 µM,6470 nM
same,"viability, T/C",[11],97.6%
same,"viability, T/C",[12],95.6%
same,"viability, T/C",[13],112%
same,"viability, T/C",[14],98.4%
same,"viability, T/C",[15],91.4%
same,"viability, T/C",[16],58.8%
same,"viability, T/C",[17],98.5%
same,"viability, T/C",[18],94.7%
same,"viability, T/C",[19],102%
same,"viability, T/C",[20],110%
same,"viability, T/C",[21],76.9%
same,"viability, T/C",[22],48.3%
same,"viability, T/C",[1],117%
same,"viability, T/C",[2],107%
same,"viability, T/C",[23],118%
same,"viability, T/C",[24],101%
same,"viability, T/C",[25],84.4%
same,"viability, T/C",[26],59.4%
same,"viability, T/C",[3],106%
same,"viability, T/C",[4],106%
same,"viability, T/C",[27],111%
same,"viability, T/C",[28],94.8%
same,"viability, T/C",[29],70.7%
same,"viability, T/C",[30],50.9%
same,"viability, T/C",[5],100%
same,"viability, T/C",[6],101%
same,"viability, T/C",[31],96.4%
same,"viability, T/C",[32],78.9%
same,"viability, T/C",[33],62%
same,"viability, T/C",[34],43.1%
CCCS(=O)(=O)Nc1ccc(F)c(C(=O)c2c[nH]c3ncc(-c4ccc(Cl)cc4)cc23)c1F + CC(C)NCC(C(=O)N1CCN(c2ncnc3c2C(C)CC3O)CC1)c1ccc(Cl)cc1,IC50,second compound 0.1 µM,> 10000 nM
same,IC50,second compound 0.316 µM,> 10000 nM
same,IC50,second compound 1 µM,> 10000 nM
same,IC50,second compound 3.16 µM,> 10000 nM
same,IC50,second compound 10 µM,31.6 nM
same,"viability, T/C",[1],97%
same,"viability, T/C",[2],90%
same,"viability, T/C",[23],90.3%
same,"viability, T/C",[24],98.8%
same,"viability, T/C",[25],98.5%
same,"viability, T/C",[26],101%
same,"viability, T/C",[3],85.4%
same,"viability, T/C",[4],76.6%
same,"viability, T/C",[27],86.3%
same,"viability, T/C",[28],76.5%
same,"viability, T/C",[29],80.2%
same,"viability, T/C",[30],85.2%
same,"viability, T/C",[5],73.2%
same,"viability, T/C",[6],70.3%
same,"viability, T/C",[31],69.1%
same,"viability, T/C",[32],64.5%
same,"viability, T/C",[33],71.3%
same,"viability, T/C",[34],76.6%
same,"viability, T/C",[7],59.4%
same,"viability, T/C",[8],60.1%
same,"viability, T/C","second compound 3.16 µM, first compound 0.316 µM",53.5%
same,"viability, T/C","second compound 3.16 µM, first compound 1 µM",52.7%
same,"viability, T/C","second compound 3.16 µM, first compound 3.16 µM",79.8%
same,"viability, T/C","second compound 3.16 µM, first compound 10 µM",60%
same,"viability, T/C",[9],43.4%
same,"viability, T/C",[10],42.7%
same,"viability, T/C","second compound 10 µM, first compound 0.316 µM",44.1%
same,"viability, T/C","second compound 10 µM, first compound 1 µM",52.4%
same,"viability, T/C","second compound 10 µM, first compound 3.16 µM",53.7%
same,"viability, T/C","second compound 10 µM, first compound 10 µM",9.37%
